Values joined by “and” are separate entries in the source; they are usually repeats but may differ in a detail not shown here. Equal entries are not always repeated.
Legend:
[1] = system: embryonic stages of S. digitata; assay: Externalization of phosphatidyl serine, Annexin-V-PE staining, flow cytometry; type: cell-based, Setaria digitata; details: for GMI (Geometric Mean Intensity) of Fluorescence, Annexin-V-PE Staining: 24 hr; for externalization of Phosphatidyl serine (result in words): Microfilariae and eggs, Annexin-V-PE staining
Description: Adult female filarial worms Setaria digitata were collected from the peritoneum of cattle, slaughtered at a nearby abattoir in sterile Hanks Balanced Salt Solution (HBSS) medium (Sigma H 2387-1L) and transported to the laboratory in a sterile container. The medium containing 1% glucose (Sigma G 7528), Penicillin 100 units/ml, Streptomycin 100 μg/ml (Sigma P 4333). And Amphotericin-B 0.25 μg/ml (Sigma A 2942) was buffered with NaHCO3 (Sigma S 5761). About 5 to 7 worms were taken in a petridish, washed three times in medium, dissected into small pieces in 10 ml of medium under sterile conditions and incubated at 37° C. for 30 minutes to allow the release of embryonic stages (eggs and microfilariae) into the medium. The embryonic stages were harvested into sterile 15 ml. centrifuge tubes and washed three times by centrifuging at 300 g for 10 minutes each with medium and the final pellet was suspended in 1 ml. of RPMI-1640 medium (Sigma R 8005) supplemented with 10% FBS (Sigma F 2442) The number of embryonic stages of S. digitata in the above preparation were counted using light microscope, and the suspension was taken in RPMI-1640 medium containing 10% FBS at 1×10^5 embryonic stages/ml. One ml. each was dispensed into individual wells of a 24 well tissue culture plate. One set of wells was taken as untreated control containing only medium with 10% FBS. […] Motility of the Mf was scored under an inverted microscope. After appropriate treatment and incubation, each set of the cultured embryonic stages of S. digitata were harvested from the 24 well tissue culture plate separately in 15 ml. sterile centrifuge tubes, washed with PBS twice and stained as per requirement following manufacturer's instructions as described below. This was followed by two times washing with PBS and final suspension of the stained embryonic stages was taken in 0.5 ml of sheath fluid (BD Biosciences 342003) before their acquisition in the flow cytometer (BD FACS Calibur, Becten and Dickinson, USA). Analysis was performed on 10,000-acquired events depicted as Dot Plots and Histogram Plots using Cellquest Pro soft ware. All plots were representative of at least 3 experiments. The distinctly clustered populations obtained consistently in the Dot plots for the intra uterine embryonic stages of S. digitata (FIG. 1 a) were gated for Mfs (R-1) and eggs (R-2 and R-3) and analyzed for different assays for apoptosis as described below. The externalization of phosphatidyl serine was detected by staining the embryonic stages with Annexin-V-PE (BD Biosciences 556421) as per the instructions of the manufacturer. Briefly, the embryonic stages of S. digitata were subjected to various treatments in culture for 24 hrs. After the said period of incubation the embryonic stages were harvested, washed with ice cold PBS twice and resuspended in 100 μl of 1× Annexin-V binding buffer (BD Biosciences 556454) at 1×10^5 embryonic stages per ml. to which 5 μl of Annexin-V-PE was added. After 15 minutes of Incubation in dark at room temperature another 400 μl of 1× Annexin-V binding buffer was added to the above suspension. The resulting 500 μl suspension of Annexin-V-PE stained embryonic stages was then acquired and analyzed by flow cytometer.

[2] = system: embryonic stages of S. digitata; assay: Intra cellular expression of CED-9 protein, flow cytometry; type: cell-based, Setaria digitata; details: 24 hr
Description: Adult female filarial worms Setaria digitata were collected from the peritoneum of cattle, slaughtered at a nearby abattoir in sterile Hanks Balanced Salt Solution (HBSS) medium (Sigma H 2387-1L) and transported to the laboratory in a sterile container. The medium containing 1% glucose (Sigma G 7528), Penicillin 100 units/ml, Streptomycin 100 μg/ml (Sigma P 4333). And Amphotericin-B 0.25 μg/ml (Sigma A 2942) was buffered with NaHCO3 (Sigma S 5761). About 5 to 7 worms were taken in a petridish, washed three times in medium, dissected into small pieces in 10 ml of medium under sterile conditions and incubated at 37° C. for 30 minutes to allow the release of embryonic stages (eggs and microfilariae) into the medium. The embryonic stages were harvested into sterile 15 ml. centrifuge tubes and washed three times by centrifuging at 300 g for 10 minutes each with medium and the final pellet was suspended in 1 ml. of RPMI-1640 medium (Sigma R 8005) supplemented with 10% FBS (Sigma F 2442) The number of embryonic stages of S. digitata in the above preparation were counted using light microscope, and the suspension was taken in RPMI-1640 medium containing 10% FBS at 1×10^5 embryonic stages/ml. One ml. each was dispensed into individual wells of a 24 well tissue culture plate. One set of wells was taken as untreated control containing only medium with 10% FBS. […] Motility of the Mf was scored under an inverted microscope. After appropriate treatment and incubation, each set of the cultured embryonic stages of S. digitata were harvested from the 24 well tissue culture plate separately in 15 ml. sterile centrifuge tubes, washed with PBS twice and stained as per requirement following manufacturer's instructions as described below. This was followed by two times washing with PBS and final suspension of the stained embryonic stages was taken in 0.5 ml of sheath fluid (BD Biosciences 342003) before their acquisition in the flow cytometer (BD FACS Calibur, Becten and Dickinson, USA). Analysis was performed on 10,000-acquired events depicted as Dot Plots and Histogram Plots using Cellquest Pro soft ware. All plots were representative of at least 3 experiments. The distinctly clustered populations obtained consistently in the Dot plots for the intra uterine embryonic stages of S. digitata (FIG. 1 a) were gated for Mfs (R-1) and eggs (R-2 and R-3) and analyzed for different assays for apoptosis as described below. After in vitro culture for 24 hours with apoptosis inducing reagents the embryonic stages were harvested in 15 ml. sterile centrifuge tubes and fixed for 60 minutes at 0° C. in 1% paraformaldehyde (Sigma P 6148) in PBS. The suspension was washed first with PBS and then with 1× permeabilisation buffer (eBioscience 00-8333-56) and finally resuspended in 100 μl of 1× permeabilisation buffer at 1×10^5 embryonic stages per ml. The intracellular expression of CED-9 was scored by incubation of the fixed and permeabilised embryonic stages with primary goat antibodies—anti CED-9 (Santacruz sc-9202) followed by probing with PE conjugated secondary anti goat IgG-PE (Santacruz sc-3747) antibodies. Incubation of both primary and secondary antibodies (both 1/100 diluted) was done successively in 1× permeabilisation buffer (e Bioscience 00-8333-56) for 1 hr and 45 minutes respectively. The suspension of stained embryonic stages was then washed with PBS twice and finally reading was taken by flow cytometry or confocal microscopy.

Compound | GMI (Geometric Mean Intensity) of Fluorescence, Annexin-V-PE Staining ([1]; Eggs, 10 μM) | externalization of Phosphatidyl serine (result in words) [1] | GMI (Geometric Mean Intensity) of Fluorescence, Annexin-V-PE Staining ([1]; Microfilariae, 10 μM) | GMI (Geometric Mean Intensity) of Fluorescence, CED-9 Expression ([2]; Eggs, 10 μM) | GMI (Geometric Mean Intensity) of Fluorescence, CED-9 Expression ([2]; Microfilariae, 10 μM) | GMI (Geometric Mean Intensity) of Fluorescence, Annexin-V-PE Staining ([1]; Eggs, 1 μM) | GMI (Geometric Mean Intensity) of Fluorescence, Annexin-V-PE Staining ([1]; Microfilariae, 1 μM) | GMI (Geometric Mean Intensity) of Fluorescence, CED-9 Expression ([2]; Eggs, 1 μM) | GMI (Geometric Mean Intensity) of Fluorescence, CED-9 Expression ([2]; Microfilariae, 1 μM)
OO [H2O2] | 30.95 and 33.55 and 35.75 | dose dependent externalization of Phosphatidyl serine was observed | 9.75 and 11.02 and 10.35 | 115.67 and 123.32 and 113.26 | 15.66 and 17.26 and 16.13 |  |  |  | 
CC1=CC(=O)c2c(O)cccc2C1=O [Plumbagin] | 81.25 and 85.22 and 89.36 | dose dependent externalization of Phosphatidyl serine was observed | 11.95 and 12.52 and 13.56 | 206.36 and 202.92 and 205.16 | 30.96 and 33.25 and 32.27 |  |  |  | 
CN[C@@H]1C[C@H]2O[C@@](C)([C@@H]1OC)n1c3ccccc3c3c4c(c5c6ccccc6n2c5c31)C(=O)NC4 [Staurosporine] |  | did not mediate such effects on Phosphatidyl serine externalization |  |  |  | 27.59 and 28.53 and 30.63 | 7.24 and 8.03 and 8.52 | 106.36 and 109.16 and 107.34 | 10.32 and 9.56 and 11.02
